# Data: ChEMBL document CHEMBL1201862, “PubChem BioAssay data set” (2004)
#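 These data come from cells grown in 96-well plates and exposed to compound for 48 hours at five concentrations. At the GI50, growth is halved.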 The source made the active and inactive calls. Rule as the data show it: active = GI50 up to about 1.1 µM and inactive = higher.
# Tests used:
# Test in all cases: NCI tumour cell line growth inhibition, 48 h
# 786-0 = system: 786-0
# A549 = system: A549
# ACHN = system: ACHN
# BT-549 = system: BT-549
# CAKI-1 = system: CAKI-1
# CCRF-CEM = system: CCRF-CEM
# COLO 205 = system: COLO 205
# DU-145 = system: DU-145
# EKVX = system: EKVX
# HCC 2998 = system: HCC 2998
# HCT-116 = system: HCT-116
# HCT-15 = system: HCT-15
# HL-60 = system: HL-60
# HOP-62 = system: HOP-62
# HOP-92 = system: HOP-92
# HT-29 = system: HT-29
# Hs-578T = system: Hs-578T
# IGROV-1 = system: IGROV-1
# K562 = system: K562
# KM12 = system: KM12
# LOX IMVI = system: LOX IMVI
# M14 = system: M14
# MCF7 = system: MCF7
# MDA-MB-231 = system: MDA-MB-231
# MDA-MB-435 = system: MDA-MB-435
# MDA-N = system: MDA-N
# MOLT-4 = system: MOLT-4
# Malme-3M = system: Malme-3M
# NCI-H226 = system: NCI-H226
# NCI-H23 = system: NCI-H23
# NCI-H460 = system: NCI-H460
# NCI/ADR-RES = system: NCI/ADR-RES
# OVCAR-3 = system: OVCAR-3
# OVCAR-4 = system: OVCAR-4
# OVCAR-5 = system: OVCAR-5
# OVCAR-8 = system: OVCAR-8
# PC-3 = system: PC-3
# RPMI-8226 = system: RPMI-8226
# RXF 393 = system: RXF 393
# SF-268 = system: SF-268
# SF-295 = system: SF-295
# SF-539 = system: SF-539
# SK-MEL-28 = system: SK-MEL-28
# SK-MEL-2 = system: SK-MEL-2
# SK-MEL-5 = system: SK-MEL-5
# SK-OV-3 = system: SK-OV-3
# SN12C = system: SN12C
# SNB-19 = system: SNB-19
# SNB-75 = system: SNB-75
# SR = system: SR
# SW-620 = system: SW-620
# T47D = system: T47D
# TK-10 = system: TK-10
# U-251 = system: U-251
# UACC-257 = system: UACC-257
# UACC-62 = system: UACC-62
# UO-31 = system: UO-31
structure (smiles),measurement,setting,value
O=C(Nc1ccccc1)OCCN=c1c2ccccc2ccc2ccccc12,GI50,786-0,32.7 µM (inactive)
same,GI50,A549,19.9 µM (inactive)
same,GI50,ACHN,20.9 µM (inactive)
same,GI50,BT-549,13 µM (inactive)
same,GI50,CAKI-1,26.4 µM (inactive)
same,GI50,CCRF-CEM,18.9 µM (inactive)
same,GI50,COLO 205,21 µM (inactive)
same,GI50,DU-145,28.8 µM (inactive)
same,GI50,EKVX,24.9 µM (inactive)
same,GI50,HCC 2998,11.2 µM (inactive)
same,GI50,HCT-116,16.9 µM (inactive)
same,GI50,HCT-15,26.1 µM
same,GI50,HL-60,17 µM (inactive)
same,GI50,HOP-62,28.2 µM (inactive)
same,GI50,HOP-92,18.4 µM (inactive)
same,GI50,HT-29,17.2 µM (inactive)
same,GI50,Hs-578T,11.5 µM (inactive)
same,GI50,IGROV-1,27.9 µM (inactive)
same,GI50,K562,14.7 µM (inactive)
same,GI50,KM12,19.1 µM (inactive)
same,GI50,LOX IMVI,20.3 µM (inactive)
same,GI50,M14,19.1 µM (inactive)
same,GI50,MCF7,> 10 µM (inactive)
same,GI50,MDA-MB-231,24.9 µM (inactive)
same,GI50,MDA-MB-435,27.6 µM (inactive)
same,GI50,MDA-N,18.5 µM (inactive)
same,GI50,MOLT-4,15.7 µM (inactive)
same,GI50,Malme-3M,18.7 µM (inactive)
same,GI50,NCI-H226,32.1 µM (inactive)
same,GI50,NCI-H23,35.1 µM (inactive)
same,GI50,NCI-H460,22.8 µM (inactive)
same,GI50,NCI/ADR-RES,21.3 µM (inactive)
same,GI50,OVCAR-3,17.5 µM (inactive)
same,GI50,OVCAR-4,25.8 µM (inactive)
same,GI50,OVCAR-5,41.5 µM (inactive)
same,GI50,OVCAR-8,26.5 µM (inactive)
same,GI50,PC-3,20.9 µM (inactive)
same,GI50,RPMI-8226,15.5 µM (inactive)
same,GI50,RXF 393,23.8 µM (inactive)
same,GI50,SF-268,34.8 µM (inactive)
same,GI50,SF-295,14 µM (inactive)
same,GI50,SF-539,19.8 µM (inactive)
same,GI50,SK-MEL-28,23.7 µM (inactive)
same,GI50,SK-MEL-2,11.3 µM (inactive)
same,GI50,SK-MEL-5,14.1 µM (inactive)
same,GI50,SK-OV-3,32.1 µM (inactive)
same,GI50,SN12C,25.5 µM (inactive)
same,GI50,SNB-19,15.9 µM (inactive)
same,GI50,SNB-75,26 µM (inactive)
same,GI50,SR,18.2 µM (inactive)
same,GI50,SW-620,31.9 µM (inactive)
same,GI50,T47D,13.1 µM (inactive)
same,GI50,TK-10,31.4 µM (inactive)
same,GI50,U-251,25.9 µM (inactive)
same,GI50,UACC-257,15.8 µM (inactive)
same,GI50,UACC-62,15 µM (inactive)
same,GI50,UO-31,17 µM (inactive)
